Columns and labels:
late watergrass = test: Test Example 1: herbicidal activity, application before weed generation under submerged conditions (Table 16, symbol A); format: in vivo, late watergrass (Echinochloa oryzicola); conditions: amount of applied herbicide 320 g/ha
Method in brief: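 Submerged Wagner pots (alluvial soil, 4 cm water) sown with weed seeds and planted with 2.5-leaf rice seedlings; emulsifiable concentrate diluted in water applied to water surface on sowing day. Held in greenhouse at 25-30 °C; injury scored 0-5 by herbicidal rate after three weeks.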

oval-leafed pondweed = test: Test Example 2: herbicidal activity, application during weed generation under submerged conditions (Table 17, symbol C); format: in vivo, oval-leafed pondweed (Monochoria vaginalis); conditions: for herbicidal effect rating, C: oval-leafed pondweed: AAH 320 g/ha, application during weed generation, submerged conditions; for herbicidal effect grade, C: oval-leafed pondweed: application during weed generation under submerged conditions, amount of applied herbicide 320 g/ha
Method in brief: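 3-wk visual-criteria score after one water-surface dose. Emulsion formulation, water-diluted to set rate; applied at 1–2 leaf stage; alluvial soil, 4 cm standing water; seeds co-sown; greenhouse 25–30° C.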

barnyard grass [1] = test: Test Example 3: herbicidal effect by foliage application, Wagner pot (Table 18, symbol H); format: in vivo, barnyard grass (Echinochloa crus-galli); conditions: for herbicidal effect on barnyard grass (H): 320 g/ha; for Herbicidal effect on H (barnyard grass), foliage application: amount of applied herbicide 320 g/ha
Method in brief: (§1)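 Plants were sown in alluvial soil held under 0.1–0.5 cm standing water and grown 14 days in a greenhouse at 25–30 °C. An emulsifiable formulation, water-diluted to the set dose, was then sprayed onto the foliage, and effects were scored three weeks later using previously defined criteria.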

Chinese sprangletop = test: Test Example 3: herbicidal effect by foliage application, Wagner pot (Table 18, symbol D); format: in vivo, chinese sprangletop (Leptochloa chinensis); conditions: for herbicidal effect on Chinese sprangletop (D): 320 g/ha; for Herbicidal effect on D (Chinese sprangletop), foliage application: amount of applied herbicide 320 g/ha
Method in brief: as §1

southern crabgrass [2] = test: Test Example 4: herbicidal effect by soil treatment (Table 19, symbol F); format: in vivo, southern crabgrass (Digitaria ciliaris); conditions: amount of applied herbicide 320 g/ha
Method in brief: (§2)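 Scoring uses the grading scale of an earlier test, three weeks post-application. Treatment consists of spraying a diluted emulsion formulation across the surface of sterilized diluvial soil in which seeds are buried near 1.5 cm deep; boxes are kept in a greenhouse between 25° C. and 30° C.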

green foxtail [3] = test: Test Example 4: herbicidal effect by soil treatment (Table 19, symbol G); format: in vivo, green foxtail (Setaria viridis); conditions: amount of applied herbicide 320 g/ha
Method in brief: as §2

barnyard grass [4] = test: Test Example 4: herbicidal effect by soil treatment (Table 19, symbol H); format: in vivo, barnyard grass (Echinochloa crus-galli); conditions: amount of applied herbicide 320 g/ha
Method in brief: as §2

windgrass = test: Test Example 4: herbicidal effect by soil treatment (Table 19, symbol L); format: in vivo, windgrass (Apera spica-venti); conditions: amount of applied herbicide 320 g/ha
Method in brief: as §2

redroot pigweed [5] = test: Test Example 4: herbicidal effect by soil treatment (Table 19, symbol N); format: in vivo, redroot pigweed (Amaranthus retroflexus); conditions: amount of applied herbicide 320 g/ha
Method in brief: as §2

chickweed = test: Test Example 4: herbicidal effect by soil treatment (Table 19, symbol P); format: in vivo, common chickweed (Stellaria media); conditions: amount of applied herbicide 320 g/ha
Method in brief: as §2

southern crabgrass [6] = test: Test Example 5: herbicidal effect by foliage application, plastic box (Table 20, symbol F); format: in vivo, southern crabgrass (Digitaria ciliaris); conditions: 320 g/ha; for F (southern crabgrass) herbicidal effect grade: evaluated 3 weeks after application
Method in brief: (§3)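 Post-emergence foliar test in sterilized diluvial soil. Compound applied as water-diluted emulsion at a predetermined rate to 14-day-old plants; evaluation at three weeks.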

green foxtail [7] = test: Test Example 5: herbicidal effect by foliage application, plastic box (Table 20, symbol G); format: in vivo, green foxtail (Setaria viridis); conditions: 320 g/ha; for G (green foxtail) herbicidal effect grade: evaluated 3 weeks after application
Method in brief: as §3

blackgrass [8] = test: Test Example 5: herbicidal effect by foliage application, plastic box (Table 20, symbol J); format: in vivo, blackgrass (Alopecurus myosuroides); conditions: foliage application, 320 g/ha; for J (blackgrass) herbicidal effect grade: evaluated 3 weeks after application
Method in brief: as §3

redroot pigweed [9] = test: Test Example 5: herbicidal effect by foliage application, plastic box (Table 20, symbol N); format: in vivo, redroot pigweed (Amaranthus retroflexus); conditions: 320 g/ha; for N (redroot pigweed) herbicidal effect grade: evaluated 3 weeks after application
Method in brief: as §3

persian speedwell = test: Test Example 5: herbicidal effect by foliage application, plastic box (Table 20, symbol R); format: in vivo, Persian speedwell (Veronica persica); conditions: 320 g/ha; for R (persian speedwell) herbicidal effect grade: evaluated 3 weeks after application
Method in brief: as §3

blackgrass [10] = test: Test Example 4: herbicidal effect by soil treatment (Table 19, symbol J); format: in vivo, blackgrass (Alopecurus myosuroides); conditions: amount of applied herbicide 320 g/ha
Method in brief: as §2

[11] = foliage application, three weeks after application
[12] = foliage application after 14-day growth, evaluated three weeks after application

Structure (SMILES) | Herbicidal effect, A: late watergrass (late watergrass) | herbicidal effect rating, C: oval-leafed pondweed (oval-leafed pondweed) | herbicidal effect on barnyard grass (H) (barnyard grass [1]) | herbicidal effect on Chinese sprangletop (D) (Chinese sprangletop) | F: southern crabgrass, herbicidal effect grade (southern crabgrass [2]) | G: green foxtail, herbicidal effect grade (green foxtail [3]) | H: barnyard grass, herbicidal effect grade (barnyard grass [4]) | L: windgrass, herbicidal effect grade (windgrass) | N: redroot pigweed, herbicidal effect grade (redroot pigweed [5]) | P: chickweed, herbicidal effect grade (chickweed) | Herbicidal effect on H (barnyard grass), foliage application (barnyard grass [1]) | Herbicidal effect on D (Chinese sprangletop), foliage application (Chinese sprangletop) | J: blackgrass, herbicidal effect grade (blackgrass [10]) | herbicidal effect grade, C: oval-leafed pondweed (oval-leafed pondweed) | F (southern crabgrass) herbicidal effect grade (southern crabgrass [6]; foliage application) | G (green foxtail) herbicidal effect grade (green foxtail [7]; foliage application) | J (blackgrass) herbicidal effect grade (blackgrass [8]) | N (redroot pigweed) herbicidal effect grade (redroot pigweed [9]; foliage application) | R (persian speedwell) herbicidal effect grade (persian speedwell; foliage application) | also measured
CCCC(=O)Oc1c(C)nn(C)c(=O)c1-c1c(-c2ccc(F)cc2OCC)sc2cc(Cl)ccc12 [3-046] | 4 (Herbicidal rate of 70% or more and less than 90%) | 1 (Herbicidal rate of 5% or more and less than 20%) | 5 (Herbicidal rate of 90% or more (almost completely withered)) | 2 (Herbicidal rate of 20% or more and less than 40%) | 0 (Herbicidal rate of 5% or less (almost no effect)) | 0 (Herbicidal rate of 5% or less (almost no effect)) | 0 (Herbicidal rate of 5% or less (almost no effect)) | 5 (Herbicidal rate of 90% or more (almost completely withered)) | 5 (Herbicidal rate of 90% or more (almost completely withered)) | 4 (Herbicidal rate of 70% or more and less than 90%) | – | – | – | – | – | – | – | – | – | F: southern crabgrass, herbicidal effect grade (southern crabgrass [6]; [11]): 5 (Herbicidal rate of 90% or more (almost completely withered)); G: green foxtail, herbicidal effect grade (green foxtail [7]; [11]): 5 (Herbicidal rate of 90% or more (almost completely withered)); J: blackgrass, herbicidal effect grade (blackgrass [8]; three weeks after application): 4 (Herbicidal rate of 70% or more and less than 90%); N: redroot pigweed, herbicidal effect grade (redroot pigweed [9]; [11]): 4 (Herbicidal rate of 70% or more and less than 90%); R: persian speedwell, herbicidal effect grade (persian speedwell; [11]): 3 (Herbicidal rate of 40% or more and less than 70%)
CCCC(=O)Oc1c(C)nn(C)c(=O)c1-c1c(-c2ccc(C#N)cc2)sc2c(F)cccc12 [4-053] | 5 (Herbicidal rate of 90% or more (almost completely withered)) | – | 4 (Herbicidal rate of 70% or more and less than 90%) | 3 (Herbicidal rate of 40% or more and less than 70%) | – | – | – | – | – | – | – | – | – | – | – | – | – | – | – | Herbicidal effect by soil treatment, F: southern crabgrass (southern crabgrass [2]): 0 (Herbicidal rate of 5% or less (almost no effect)); Herbicidal effect by soil treatment, G: green foxtail (green foxtail [3]): 2 (Herbicidal rate of 20% or more and less than 40%); Herbicidal effect by soil treatment, H: barnyard grass (barnyard grass [4]): 0 (Herbicidal rate of 5% or less (almost no effect)); Herbicidal effect by soil treatment, J: blackgrass (blackgrass [10]): 0 (Herbicidal rate of 5% or less (almost no effect)); Herbicidal effect by soil treatment, L: windgrass (windgrass): 0 (Herbicidal rate of 5% or less (almost no effect)); Herbicidal effect by soil treatment, N: redroot pigweed (redroot pigweed [5]): 5 (Herbicidal rate of 90% or more (almost completely withered)); Herbicidal effect by soil treatment, P: chickweed (chickweed): 4 (Herbicidal rate of 70% or more and less than 90%); herbicidal effect on F: southern crabgrass (evaluation grade 0-5) (southern crabgrass [6]; [12]): 0 (Herbicidal rate of 5% or less (almost no effect)); herbicidal effect on G: green foxtail (evaluation grade 0-5) (green foxtail [7]; [12]): 0 (Herbicidal rate of 5% or less (almost no effect)); herbicidal effect on N: redroot pigweed (evaluation grade 0-5) (redroot pigweed [9]; [12]): 5 (Herbicidal rate of 90% or more (almost completely withered)); herbicidal effect on R: persian speedwell (evaluation grade 0-5) (persian speedwell; [12]): 5 (Herbicidal rate of 90% or more (almost completely withered))
Cc1nn(C)c(=O)c(-c2c(-c3ccc(OC(C)C)cc3)oc3ccc(F)cc23)c1O [9-025] | 5 (Herbicidal rate of 90% or more (almost completely withered)) | 4 (Herbicidal rate of 70% or more and less than 90%) | – | – | 4 (Herbicidal rate of 70% or more and less than 90%) | 5 (Herbicidal rate of 90% or more (almost completely withered)) | 4 (Herbicidal rate of 70% or more and less than 90%) | – | 3 (Herbicidal rate of 40% or more and less than 70%) | 0 (Herbicidal rate of 5% or less (almost no effect)) | 5 (Herbicidal rate of 90% or more (almost completely withered)) | 2 (Herbicidal rate of 20% or more and less than 40%) | 3 (Herbicidal rate of 40% or more and less than 70%) | – | – | – | – | – | – | herbicidal effect on southern crabgrass (F) (southern crabgrass [6]; [11]): 5 (Herbicidal rate of 90% or more (almost completely withered)); herbicidal effect on green foxtail (G) (green foxtail [7]; [11]): 0 (Herbicidal rate of 5% or less (almost no effect)); herbicidal effect on blackgrass (J) (blackgrass [8]; three weeks after application): 4 (Herbicidal rate of 70% or more and less than 90%); herbicidal effect on persian speedwell (R) (persian speedwell; [11]): 5 (Herbicidal rate of 90% or more (almost completely withered))
CSc1ccc(-c2oc3ccc(C)cc3c2-c2c(O)c(C)nn(C)c2=O)cc1 [9-055] | 5 (Herbicidal rate of 90% or more (almost completely withered)) | – | – | – | 0 (Herbicidal rate of 5% or less (almost no effect)) | 4 (Herbicidal rate of 70% or more and less than 90%) | 3 (Herbicidal rate of 40% or more and less than 70%) | 0 (Herbicidal rate of 5% or less (almost no effect)) | 5 (Herbicidal rate of 90% or more (almost completely withered)) | 5 (Herbicidal rate of 90% or more (almost completely withered)) | 5 (Herbicidal rate of 90% or more (almost completely withered)) | 5 (Herbicidal rate of 90% or more (almost completely withered)) | – | 3 (Herbicidal rate of 40% or more and less than 70%) | 4 (Herbicidal rate of 70% or more and less than 90%) | 3 (Herbicidal rate of 40% or more and less than 70%) | 5 (Herbicidal rate of 90% or more (almost completely withered)) | 5 (Herbicidal rate of 90% or more (almost completely withered)) | 5 (Herbicidal rate of 90% or more (almost completely withered)) | –
COCCOc1ccc(-c2oc3ccc(C)cc3c2-c2c(O)c(C)nn(C)c2=O)cc1 [9-063] | 5 (Herbicidal rate of 90% or more (almost completely withered)) | – | – | – | 5 (Herbicidal rate of 90% or more (almost completely withered)) | 5 (Herbicidal rate of 90% or more (almost completely withered)) | 5 (Herbicidal rate of 90% or more (almost completely withered)) | – | 5 (Herbicidal rate of 90% or more (almost completely withered)) | 4 (Herbicidal rate of 70% or more and less than 90%) | 5 (Herbicidal rate of 90% or more (almost completely withered)) | 3 (Herbicidal rate of 40% or more and less than 70%) | 5 (Herbicidal rate of 90% or more (almost completely withered)) | 4 (Herbicidal rate of 70% or more and less than 90%) | 5 (Herbicidal rate of 90% or more (almost completely withered)) | 5 (Herbicidal rate of 90% or more (almost completely withered)) | 5 (Herbicidal rate of 90% or more (almost completely withered)) | 5 (Herbicidal rate of 90% or more (almost completely withered)) | 5 (Herbicidal rate of 90% or more (almost completely withered)) | –

Reference: patent US20230085307A1, “PYRIDAZINONE COMPOUND AND HERBICIDE” (NISSAN CHEMICAL CORPORATION, priority 2019, published 2023)
